{"source": "paper PMC10987543", "about": "(Cell Death Discovery, 2024)", "key": {"[1]": {"test_system": "DC2.4 murine dendritic cells", "assay": "Immunogenicity experiment: cytokine expression in dendritic cells (qPCR)", "type": "cell-based", "settings": "DC2.4 cells, 2 h with conditioned media from 4T1 cells treated with 100 µM CKS1; N = 4", "experimental": "Two-lakh cells of 4T1 cells were seeded in wells of a 6-well plate. After overnight incubation, the media was replaced with 500 µL of fresh media, and 4T1 cells were treated with either 100 µM CKS1 or water for 2 h. In a separate well, 500 µL of fresh media was added and 100 µM CKS1 was incubated for 2 h. After the 2 h of incubation, all the supernatant was collected, filtered with 0.22 µm syringe filter, and was stored at −80 °C. Five lakh cells of DC2.4 cells were seeded in wells of a 24-well plate. After overnight incubation, the media was replaced with fresh media, supernatant from 4T1 cells treated with water, supernatant from 4T1 cells treated with 100 µM CKS1, or media containing 100 µM CKS1. DC2.4 cells were incubated for 2 h before RNA extraction.\nRNA extraction was conducted using QIAwave RNA Mini Kit (Qiagen, Germany, 74535) following the manufacturer’s instructions. […]\nReal-time qPCR was conducted using PowerUp SYBR Green Master Mix for qPCR (Thermo Fisher Scientific, A25741) following the manufacturer’s instructions. […] The relative quantity of TNF, IL-6, and IL-12b was normalized to the relative quantity of GAPDH. Finally, the expression level of the cytokines was normalized to the control sample and the fold change was calculated."}, "[2]": {"test_system": "caspase-3", "assay": "Caspase-3 activity assay in cell lysate", "type": "cell-based, murine", "settings": "4T1 cells, 100 µM, N = 3", "experimental": "Ten thousand 4T1 cells were seeded in 96-well plates and incubated overnight. After CKS1 treatment, the cells were lysed using a lysis buffer (Cell Signaling Technology, #7018). The activity of caspase-3 in the cell lysate was quantified using the caspase-3 activity assay kit (Cell Signaling Technology, #5723) following the manufacturer’s instructions. Briefly, the cell lysate was incubated with a substrate of caspase-3 which was designed to emit fluorescence when cleaved. After incubation, the fluorescence was measured using a plate reader. The protein concentration of the cell lysate was quantified using the DC protein assay kit (Bio-Rad). The caspase-3 activity was divided by the protein concentration to obtain the caspase-3 activity per µg/mL protein in the cell lysate."}, "[3]": {"test_system": "4T1 tumors", "assay": "4T1 triple breast cancer model, intratumoral treatment", "type": "in vivo, Balb/c mice", "experimental": "The protocols used in this study were approved by the Institutional Care and Use Committee at Johns Hopkins Medical Institutions. Four- to eight-week-old female Balb/c mice were obtained from Charles River (Wilmington, MA). For the 4T1 […] model, 2.5 × 10^4 4T1 cells were injected into the first mammary fat pad of each mouse. For the CT26 colon carcinoma model, 1.0 × 10^6 CT26 cells were injected subcutaneously in the left flank. The sample size was determined so that the final distribution would be close to normal distribution. After 1 week, the animals were randomized into control and CKS1 treatment. During the randomization, the mice were kept in a cage covered with cloth so that the investigator could not see the tumor size. We started daily intratumoral treatment with 40 mg/kg CKS1. For the control group, the matching volume of water was treated intratumorally. The tumor size was measured by using a caliper, and the volume was calculated by using the formula 0.52 × (length) × (width)^2.\nTumors were fixed by immersion in 10% neutral buffered formalin (Millipore Sigma) for 48 h and subsequently dehydrated by immersion in 70%, 90%, and 100% ethanol followed by xylene for two changes of 30 min each. Tissues were embedded in paraffin blocks at 58 °C and sectioned at 4 μm using a microtome. […]"}, "[4]": {"test_system": "CT26 cells", "assay": "Quantification of ATP release", "type": "cell-based, murine", "settings": "20 µM or 100 µM, 30 min, N = 3", "experimental": "(§1) Two-lakh cells of 4T1 cells or CT26 cells in growth media were seeded in wells of a 96-well plate. After 12 h, the media was replaced with serum-free media, and the cells were treated with the corresponding concentration of CKS1. […] After filtering the supernatant with a 0.2 µm pore filter (Corning, 431229), the amount of ATP in the supernatant was quantified using the ENLITEN ATP assay system (Promega Corporation, Madison, WI, FF2000). We followed the instructions from the manufacturer when using the ENLITEN ATP assay system."}, "[5]": {"test_system": "4T1 cells", "assay": "Quantification of ATP release", "type": "cell-based, murine", "settings": "20 µM or 100 µM, 30 min, N = 3", "experimental": "as §1"}, "[6]": {"test_system": "CT26 cells", "assay": "Quantification of HMGB-1 release (ELISA)", "type": "cell-based, murine", "settings": "100 µM, 6 h, N = 3", "experimental": "(§2) Fifteen thousand cells of 4T1 cells or CT26 cells in growth media were seeded in wells of a 96-well plate. After 12 h, the media was replaced with serum-free media, and the cells were treated with the corresponding concentration of CKS1. The cells were treated with CKS1 for 6 h and the supernatant was collected from each well. After filtering the supernatant with a 0.2 µm pore filter (Corning, 431229), the amount of HMGB-1 in the supernatant was quantified using the Mouse/Rat HMGB1 ELISA kit (arigo biolaboratories, ARG81310)."}, "[7]": {"test_system": "4T1 cells", "assay": "Quantification of HMGB-1 release (ELISA)", "type": "cell-based, murine", "settings": "100 µM, 6 h, N = 3", "experimental": "as §2"}}, "note": "“Also recorded” adds a separate entry of the source. Ends that are not written are not given here."}
{"substance": "NGRKACLNPASPIVKKIIEKMLNS-NH2 [CKS1, Chemokinostatin-1]", "values": [{"measurement": "expression level of TNF, IL-6, IL-12b", "setting": "[1]", "result": "significantly increased the expression level of the cytokines"}, {"measurement": "caspase-3 activity in cell lysate", "setting": "[2]; 30 min", "result": "not activated"}, {"measurement": "caspase-3 activity in cell lysate", "setting": "[2]; 4 h", "result": "activated after 4 h"}, {"measurement": "tumor growth (tumor volume)", "setting": "[3]; 4T1 tumors, 40 mg/kg intratumoral daily from day 7, N = 15, 40 mg/kg", "result": "inhibited; also recorded: relatively modest response"}, {"measurement": "tumor necrosis (H&E stain)", "setting": "[3]; established 4T1 tumors, intratumoral injection, 24 h, representative of N = 3", "result": "Necrosis was observed"}, {"measurement": "release of ATP in the culture media", "setting": "[4]", "result": "significant release of ATP"}, {"measurement": "release of ATP in the culture media", "setting": "[5]", "result": "significant release of ATP"}, {"measurement": "release of HMGB-1 in the culture media", "setting": "[6]", "result": "significant release of HMGB-1"}, {"measurement": "release of HMGB-1 in the culture media", "setting": "[7]", "result": "weak"}]}
